Several values for one entry are separate records, joined by “and”; a condition that tells them apart may be missing. Equal entries are not always repeated. Where two headings read alike, the source gives them in different places.
Columns and labels:
galectin-3 [1] = molecular target: T1, galectin-3 (Homo sapiens, UniProt P17931); details: cited from earlier work
T1 construct: made in house

galectin-4C [2] = molecular target: T2, galectin-4C (Homo sapiens, UniProt P56470); details: cited from earlier work
T2 construct: made in house; host or cells: E. coli BL-21 (DE3)
T2 sequence (P56470 185-323): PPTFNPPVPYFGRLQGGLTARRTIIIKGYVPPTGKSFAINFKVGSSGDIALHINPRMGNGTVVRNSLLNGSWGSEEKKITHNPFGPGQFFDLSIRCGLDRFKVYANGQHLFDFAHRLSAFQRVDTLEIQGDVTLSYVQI

galectin-1 [3] = molecular target: T3, galectin-1 (Homo sapiens, UniProt P09382); details: cited from earlier work
T3 construct: made in house
T3 sequence (P09382 whole entry): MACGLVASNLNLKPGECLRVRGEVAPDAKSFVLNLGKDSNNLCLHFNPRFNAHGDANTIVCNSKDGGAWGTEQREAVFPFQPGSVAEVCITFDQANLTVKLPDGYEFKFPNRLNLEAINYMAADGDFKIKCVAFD

galectin-1 [4] = molecular target: T3, galectin-1; assay: competitive fluorescence polarization assay, galectin-1; format: binding; details: for Kd: fluorescence polarization, Kd and SEM from 3–6 single point measurements, read-out: Dissociation constants, Galectin-1
Procedure: (§1) Affinities of 1c–1z for galectin-1, -3, -4C, -4N, -7, -8C, -8N, -9C, and -9N were measured using an established fluorescence polarization assay[57] with reported probes and conditions.[19] […]
(§2) Fluorescence polarization experiments
(§3) Human galectin-11 and galectin-32 were expressed and purified as earlier described. Fluorescence polarization experiments were performed on a PheraStarFS plate reader with software PHERAstar Mars version 2.10 R3 (BMG, Offenburg, Germany). Specific experimental conditions were a galectin-1 concentration of 0.5 µM together with the fluorescent probe (3,3’-dideoxy-3-[4-(fluorescein-5-yl-carbonylaminomethyl)-1H-1,2,3-triazol-1-yl]-3’-(3,5-di-methoxybenzamido)-1,1’-sulfanediyl-di-β-D-galactopyranoside 1 concentration of 20 nM and a galectin-3 concentration of 0.2 µM together with the fluorescent probe (3,3’-dideoxy-3-[4-(fluorescein-5-yl-carbonylaminomethyl)-1H-1,2,3- […]
(§4) triazol-1-yl]-3’-(3,5-di-methoxybenzamido)-1,1’-sulfanediyl-di-β-D-galactopyranoside) concentration of 20 nM, respectively. Inhibitors were dissolved in dimethylsulfoxide (analytical grade) to a concentration of 20 mM, diluted with PBS to 3–6 different concentrations, and tested in duplicate twice for galectin affinity using a competitive fluorescence polarization assay as earlier described.3 The highest inhibitor concentrations tested were 1 mM due to solubility limitations at higher concentration. Dissociation constants average and SEM were calculated from two to eight single point measurements showing between 20–80% inhibition. […]

galectin-4C [5] = molecular target: T2, galectin-4C; assay: competitive fluorescence polarization assay, galectin-4C; format: binding; details: for Kd: fluorescence polarization, x/y cells = only two data points revealed inhibition, both shown, > values estimated, no apparent binding at highest concentration, read-out: Dissociation constants, Galectin-4C
Procedure: Affinities of 1c–1z for galectin-1, -3, -4C, -4N, -7, -8C, -8N, -9C, and -9N were measured using an established fluorescence polarization assay[57] with reported probes and conditions.[19]
Recombinant human galectin-4 C-terminal carbohydrate recognition domain was expressed and purified as previously reported.[57,70] Briefly, BL-21 (DE3) E. coli cells containing galectin-4C (amino acid sequence 185–323) was expressed, lysed by sonication and purified by affinity chromatography on a lactosyl-Sepharose column. Galectin-4C protein was eluted using 50 mM β-lactose in PBS, pH 7.4. Galectin-4C was then further gel purified using a Superdex 200/60 column (GE Healthcare) previously equilibrated in PBS, pH 7.4. The peak fractions collected containing galectin-4C were pooled and concentrated to 6.5 mg mL^−1 using an AmiconUltra 3K molecular weight cut-off centrifugal concentrator (Millipore, Billerica, MA, USA) and used directly in crystallisation studies. […]
as §4

galectin-3 [6] = molecular target: T1, galectin-3; assay: competitive fluorescence polarization assay, galectin-3; details: Kd and SEM from 3–6 single point measurements, > values estimated, no apparent binding at highest concentration, read-out: Dissociation constants, Galectin-3
Procedure: as §1, §2, §3, §4

galectin-4N = molecular target: T4, galectin-4N (Homo sapiens, UniProt P56470); assay: competitive fluorescence polarization assay, galectin-4N; format: binding; details: Kd and SEM from 3–6 single point measurements, read-out: Dissociation constants, Galectin-4N
T4 construct: called “N” for the N-terminal CRD and “C” for the C-terminal
T4 sequence (P56470 19-150 limits assumed): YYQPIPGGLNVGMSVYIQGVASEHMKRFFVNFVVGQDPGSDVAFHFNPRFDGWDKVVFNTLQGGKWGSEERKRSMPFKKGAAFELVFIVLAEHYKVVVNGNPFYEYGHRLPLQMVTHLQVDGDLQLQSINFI
Procedure: as §1, §4

[7] = Table 1 reference compounds, read-out: Dissociation constants, Galectin-3
[8] = Chart 1, known C1-galactosyl inhibitors, read-out: affinity, Galectin-4C
[9] = Table 1 reference compounds, read-out: Dissociation constants, Galectin-1
[10] = Chart 1, known C1-galactosyl inhibitors, read-out: affinity, Galectin-1
[11] = Chart 1, known C1-galactosyl inhibitors, read-out: affinity, Galectin-3

T1 sequence (P17931 whole entry): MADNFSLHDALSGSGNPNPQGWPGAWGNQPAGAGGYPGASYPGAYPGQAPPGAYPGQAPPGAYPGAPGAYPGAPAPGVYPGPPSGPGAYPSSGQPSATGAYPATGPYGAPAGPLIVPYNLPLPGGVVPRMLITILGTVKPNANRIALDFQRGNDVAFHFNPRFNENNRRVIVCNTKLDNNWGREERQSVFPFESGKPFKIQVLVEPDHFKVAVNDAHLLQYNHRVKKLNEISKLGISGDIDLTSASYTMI

| SMILES | Kd (galectin-1 [4]) | Kd (galectin-4C [5]) | Kd (galectin-3 [6]) | further results |
| --- | --- | --- | --- | --- |
| OC[C@H]1O[C@@H](c2cn(-c3ccccc3F)nn2)[C@H](O)[C@@H](O)[C@H]1O [Compound 1a] |  |  |  | Kd (galectin-3 [1]; [7]): 880 µM; Kd (galectin-4C [2]; [8]): 780 µM; Kd (galectin-1 [3]; [9]): 170 µM |
| OC[C@H]1O[C@@H](c2cn(-c3ccc(Cl)cc3)nn2)[C@H](O)[C@@H](O)[C@H]1O [Compound 1b] |  |  |  | Kd (galectin-3 [1]; [7]): 1700 µM; Kd (galectin-4C [2]; [8]): 760 µM; Kd (galectin-1 [3]; [9]): 340 µM |
| OC[C@H]1O[C@@H](c2cn(-c3ccc(C(F)(F)F)cc3)nn2)[C@H](O)[C@@H](O)[C@H]1O [Compound 1g] | 1300 ± 320 µM | 2300 µM and 2600 µM | 1200 ± 31 µM |  |
| O=[N+]([O-])c1ccc(-n2cc([C@@H]3O[C@H](CO)[C@H](O)[C@H](O)[C@H]3O)nn2)cc1 [Compound 1i] | 400 ± 5 µM | 910 ± 46 µM | 1500 ± 67 µM |  |
| OC[C@H]1O[C@@H](c2cn(-c3c(F)cccc3F)nn2)[C@H](O)[C@@H](O)[C@H]1O [Compound 1k] | 1300 ± 190 µM | > 2000 µM | 1200 ± 90 µM |  |
| OC[C@H]1O[C@@H](c2cn(-c3nccs3)nn2)[C@H](O)[C@@H](O)[C@H]1O [Compound 1s] | 980 ± 7 µM | > 2000 µM | 910 ± 92 µM |  |
| OC[C@H]1O[C@@H](c2cn(-c3ccc(-c4ccccc4)cc3)nn2)[C@H](O)[C@@H](O)[C@H]1O [Compound 1t] | 970 ± 25 µM | 880 ± 82 µM | 2000 ± 270 µM |  |
| OC[C@H]1O[C@@H](c2cn(-c3ccccn3)nn2)[C@H](O)[C@@H](O)[C@H]1O [Compound 1z] | 150 ± 17 µM | 2600 µM and 3100 µM | 880 ± 100 µM |  |
| OC[C@H]1O[C@@H](c2cnc(-c3cccc4ccccc34)o2)[C@H](O)[C@@H](O)[C@H]1O [Compound 2] |  |  |  | Kd (galectin-3 [1]; as printed in the running text, read-out: galectin-3 affinity): 90 µM; Kd (galectin-4C [2]; [8]): 550 µM; Kd (galectin-1 [3]; [10]): 490 µM |
| OC[C@H]1O[C@@H](Cn2cc(-c3ccc(F)cc3)nn2)[C@H](O)[C@@H](O)[C@H]1O [Compound 3] |  |  |  | Kd (galectin-3 [1]; [11]): 710 µM; Kd (galectin-4C [2]; [8]): 1200 µM; Kd (galectin-1 [3]; [10]): 170 µM |
| OC[C@H]1O[C@@H](Cn2cc(-c3ccc(C(F)(F)F)cc3)nn2)[C@H](O)[C@@H](O)[C@H]1O [Compound 4] |  |  |  | Kd (galectin-3 [1]; [11]): 830 µM; Kd (galectin-4C [2]; [8]): > 900 µM; Kd (galectin-1 [3]; [10]): 240 µM |
| OC[C@H]1O[C@@H](c2cn(-c3ccccc3F)nn2)[C@H](O)[C@@H](n2cc(-c3ccccc3)nn2)[C@H]1O [Compound 16a, 1,3-Dideoxy-1-(1-(2-fluorophenyl)-1H-1,2,3-triazol-4-yl)-3-(4-(phenyl)-1H-1,2,3-triazolyl)-β-D-galactopyranosyl] | 280 ± 39 µM | 18 ± 2 µM | 34 ± 1 µM | Kd (galectin-4N): 90 ± 17 µM |
| OC[C@H]1O[C@@H](c2cnc(-c3cccc4ccccc34)o2)[C@H](O)[C@@H](n2cc(-c3ccccc3)nn2)[C@H]1O [Compound 18] |  | 2.3 ± 0.4 µM |  | selectivity for galectin-4C over galectin-3 (galectin-4C [5]; ratio of Kd): 4 fold |
| CO[C@@H]1O[C@H](CO)[C@@H](O[C@@H]2O[C@H](CO)[C@H](O)[C@H](O)[C@H]2O)[C@H](O)[C@H]1O [β-Me Lac, methyl β-lactoside] |  |  |  | Kd (galectin-3 [1]; Table 1 reference saccharides, read-out: Dissociation constants, Galectin-3): 220 µM; Kd (galectin-4C [2]; Table 1 reference saccharides, read-out: Dissociation constants, Galectin-4C): 2900 µM; Kd (galectin-1 [3]; Table 1 reference saccharides, read-out: Dissociation constants, Galectin-1): 190 µM |

Further lines, with some results ahead:

| Kd (galectin-1 [4]) | Kd (galectin-4C [5]) | Kd (galectin-3 [6]) | SMILES | further results |
| --- | --- | --- | --- | --- |
| 140 ± 25 µM | 1400 µM and 1500 µM | 1400 ± 340 µM | OC[C@H]1O[C@@H](c2cn(-c3ccc(Br)cc3)nn2)[C@H](O)[C@@H](O)[C@H]1O [Compound 1c, 4-(1-Deoxy-β-D-galactopyranosyl)-1-(4-bromophenyl)-1H-1,2,3-triazole] | selectivity for galectin-1 over galectin-3 (galectin-1 [4]; ratio of Kd): tenfold |
| 1400 ± 95 µM | > 2000 µM | 1600 ± 30 µM | OC[C@H]1O[C@@H](c2cn(-c3cccc(Br)c3)nn2)[C@H](O)[C@@H](O)[C@H]1O [Compound 1d, 4-(1-Deoxy-β-D-galactopyranosyl)-1-(3-bromophenyl)-1H-1,2,3-triazole] |  |
| 460 ± 50 µM |  | > 1000 µM | OC[C@H]1O[C@@H](c2cn(-c3ccc(I)cc3)nn2)[C@H](O)[C@@H](O)[C@H]1O [Compound 1e] |  |
| 1300 ± 220 µM |  | > 1000 µM | OC[C@H]1O[C@@H](c2cn(-c3cccc(I)c3)nn2)[C@H](O)[C@@H](O)[C@H]1O [Compound 1f] |  |
| 1500 ± 62 µM | 1500 µM and 2200 µM | 1300 ± 69 µM | OC[C@H]1O[C@@H](c2cn(-c3cccc(C(F)(F)F)c3)nn2)[C@H](O)[C@@H](O)[C@H]1O [Compound 1h] |  |
| 1800 ± 64 µM | > 2000 µM | 1000 ± 23 µM | O=[N+]([O-])c1cccc(-n2cc([C@@H]3O[C@H](CO)[C@H](O)[C@H](O)[C@H]3O)nn2)c1 [Compound 1j] |  |
| 300 ± 20 µM | > 2000 µM | 1200 ± 110 µM | OC[C@H]1O[C@@H](c2cn(-c3ccc(Cl)cc3F)nn2)[C@H](O)[C@@H](O)[C@H]1O [Compound 1l] |  |
| 580 ± 12 µM | 1300 ± 260 µM | 870 ± 140 µM | OC[C@H]1O[C@@H](c2cn(-c3cc(Cl)ccc3F)nn2)[C@H](O)[C@@H](O)[C@H]1O [Compound 1m] |  |
| 1100 ± 48 µM | > 2000 µM | > 1000 µM | OC[C@H]1O[C@@H](c2cn(-c3cccc(Cl)c3F)nn2)[C@H](O)[C@@H](O)[C@H]1O [Compound 1n] |  |
| 310 ± 29 µM | > 2000 µM | 770 ± 89 µM | OC[C@H]1O[C@@H](c2cn(-c3ccc(Br)cc3F)nn2)[C@H](O)[C@@H](O)[C@H]1O [Compound 1o] |  |
| 1300 ± 200 µM | 2300 µM and 2500 µM | 660 ± 53 µM | OC[C@H]1O[C@@H](c2cn(-c3ccc(Cl)c(Cl)c3)nn2)[C@H](O)[C@@H](O)[C@H]1O [Compound 1p] |  |
| 1200 ± 240 µM | > 2000 µM | 1400 ± 38 µM | Cc1ccc(-n2cc([C@@H]3O[C@H](CO)[C@H](O)[C@H](O)[C@H]3O)nn2)cc1Cl [Compound 1q] |  |
| 650 ± 3 µM | > 2000 µM | 490 ± 6 µM | OC[C@H]1O[C@@H](c2cn(-c3ccc(Cl)cn3)nn2)[C@H](O)[C@@H](O)[C@H]1O [Compound 1r] |  |
| 2100 ± 73 µM | 2100 ± 490 µM | 1400 ± 160 µM | OC[C@H]1O[C@@H](c2cn(-c3ccc4c(c3)CCC4)nn2)[C@H](O)[C@@H](O)[C@H]1O [Compound 1u] |  |
| 780 ± 43 µM | 2900 µM and 3500 µM | 690 ± 70 µM | CS(=O)(=O)c1ccc(-n2cc([C@@H]3O[C@H](CO)[C@H](O)[C@H](O)[C@H]3O)nn2)cc1 [Compound 1v] |  |
| 1400 ± 85 µM | > 2000 µM | 1400 ± 70 µM | CS(=O)(=O)c1cccc(-n2cc([C@@H]3O[C@H](CO)[C@H](O)[C@H](O)[C@H]3O)nn2)c1 [Compound 1w] |  |
| 970 ± 65 µM | 1900 ± 550 µM | 1200 ± 83 µM | CC(=O)c1ccc(-n2cc([C@@H]3O[C@H](CO)[C@H](O)[C@H](O)[C@H]3O)nn2)cc1 [Compound 1x] |  |
| 1300 ± 260 µM | 2000 µM and 2700 µM | 1000 ± 200 µM | CC(=O)c1cccc(-n2cc([C@@H]3O[C@H](CO)[C@H](O)[C@H](O)[C@H]3O)nn2)c1 [Compound 1y] |  |
